Key:
[1] = system: Hepcidin (Hamp) mRNA in HepG2 cells; experiment: Hepcidin mRNA expression in HepG2 cells by qRT-PCR; format: cell-based, human; details: for hepcidin mRNA expression increase / hepcidin −ΔΔCt ±SD: HepG2 cells, 50 ng/ml each, peak levels 4 hours after treatment
Procedure: (§1) Human hepatoma cells (HepG2; ATCC) were cultured in high glucose Dulbecco's Modified Eagle Media (DMEM) supplemented with 10% fetal calf serum (FCS) and antibiotics. For stimulation experiments, cells were transferred to 6-well dishes and starved with DMEM containing 0.1% FCS for 5 hours before exposure to IL-6 (50 ng/ml; R&D Systems) and/or activin A (50 ng/ml; R&D) or activin B (50 ng/ml; R&D) for 1 h30, 2 h30, 4 h, 6 h, and 24 h. The pharmacological inhibitor LDN-193189 (100 nM; Axon Medchem), ALK2-Fc (1 μg/mL; R&D), or ALK3-Fc (1 μg/mL; R&D) were added 30 min prior to activin B exposure.
(§2) Total RNA from mouse liver, human hepatoma cells, or mouse primary hepatocytes, was extracted using Trizol (Invitrogen). cDNA was synthesized using MMLV-RT (Promega). Quantitative PCR (Q-PCR) reactions were prepared with LightCycler® 480 DNA SYBR Green I Master reaction mix (Roche Diagnostics) and run in duplicate on a LightCycler® 480 Instrument (Roche Diagnostics).
(§3) Means of −ΔCt (i.e., Ct Hprt−Ct target)±standard deviation (SD) were calculated for the different groups of mice. Means of −ΔCt values between LPS-challenged and unchallenged mice were compared by Student's t-tests. Because, in addition to inflammation, mouse genotype (wild-type versus Bmp6−/−) may also affect mean −ΔCt values, we used two-way analysis of variance (ANOVA) to test for the effect of both factors and their interaction. Differences between mean −ΔCt at a specific time point after LPS administration and mean −ΔCt at time 0 (−ΔΔCt±SD) were also calculated and point estimations of fold changes induced by LPS administration obtained by raising 2 to the power −ΔΔCt (Yuan et al., 2006). For HepG2 cells or mouse primary hepatocytes, −ΔΔCt values (i.e., −ΔCt treatment+ΔCt vehicle)±SD were obtained for each condition and means of −ΔΔCt were compared to 0 by Student's t-tests.

[2] = system: SMAD1/5/8 phosphorylation in HepG2 cells; experiment: SMAD1/5/8 phosphorylation in HepG2 cells by immunoblot; format: cell-based, human; details: 2 h30, 4 or 6 hours; for SMAD1/5/8 phosphorylation: HepG2, 50 ng/ml
Procedure: as §1
(§4) Livers were homogenized in a FastPrep®-24 Instrument (MP Biomedicals) for 15 sec at 4 m/s. The lysis buffer (50 mM Tris-HCl, pH 8, 150 mM NaCl, 5 mM EDTA, pH 8, 0.1% NP-40) included inhibitors of proteases (complete protease inhibitor cocktail, Roche Applied Science) and of phosphatases (phosphatase inhibitor cocktail 2, Sigma-Aldrich). Liver proteins were quantified using the Bio-Rad Protein Assay kit. HepG2 cells and mouse primary hepatocytes were lysed in RIPA buffer (Sigma-Aldrich) supplemented with protease and phosphatase inhibitors, and proteins were quantified using the Bio-Rad DC Protein Assay.
Fresh protein extracts were diluted in Laemmli buffer (Sigma-Aldrich), incubated for 5 minutes at 95° C., and subjected to SDS-PAGE. Proteins were then transferred to PVDF membranes (Millipore). Membranes were blocked with 5% of dry milk in TBS-T buffer (10 mM Tris-HCl, pH 7.5, 150 mM NaCl, 0.15% Tween 20). They were incubated with rabbit antibodies to phospho-Smad1/5/8 (Cell Signaling Technology) or phospho-Stat3 (Cell Signaling) at 4° C. overnight, and washed with TBS-T buffer. Following incubation with a goat anti-rabbit IgG antibody (Cell Signaling) conjugated to horseradish peroxidase (HRP), enzyme activity was visualized by an ECL-based detection system (Millipore). Blots were then stripped and reprobed with rabbit antibodies to Smad5 (Epitomics) or Stat3 (Cell Signaling) 2 hours at RT before incubation with the goat anti-rabbit HRP-linked antibody.

[3] = system: Hepcidin (Hamp) mRNA in mouse primary hepatocytes; experiment: Hepcidin mRNA expression in mouse primary hepatocytes by qRT-PCR; format: cell-based; details: for hepcidin mRNA increase / hepcidin −ΔΔCt ±SD: primary hepatocytes from Bmp6-deficient mice, 50 ng/ml each, 2 h30
Procedure: (§5) Mouse primary hepatocytes were isolated from ten-week-old Bmp6-deficient mice using a collagenase perfusion protocol (Lin et al., 2007). The viable hepatocyte population was further purified by a Percoll gradient centrifugation. Hepatocytes were plated in 6-well collagen-coated plates at 7×10^5 cells per well and cultured in DMEM supplemented with 10% FCS and antibiotics for 18 hours. After serum starvation for 5 hours in 0.1% FCS, hepatocytes were stimulated with IL-6 (50 ng/ml) and/or activin B (50 ng/ml), or vehicle, in the presence or absence of LDN-193189 (l μM), and RNA was harvested 1, 2, 3, and 4 hours later.
as §2, §3

[4] = system: Smad1/5/8 phosphorylation in mouse primary hepatocytes; experiment: Smad1/5/8 phosphorylation in mouse primary hepatocytes by immunoblot; format: cell-based
Procedure: as §5, §4
(§6) Fresh protein extracts were diluted in Laemmli buffer (Sigma-Aldrich), incubated for 5 minutes at 95° C., and subjected to SDS-PAGE. […]

[5] = system: BMP type I receptors; details: 100 nM; cited from earlier work
[6] = system: hepcidin expression; details: cultured hepatoma-derived cells, zebrafish, mouse, or rat; cited from earlier work
[7] = system: STAT3 phosphorylation in HepG2 cells; experiment: STAT3 phosphorylation in HepG2 cells by immunoblot; format: cell-based, human; details: HepG2, 50 ng/ml
Procedure: as §1, §4
Fresh protein extracts were diluted in Laemmli buffer (Sigma-Aldrich), incubated for 5 minutes at 95° C., and subjected to SDS-PAGE. Proteins were then transferred to PVDF membranes (Millipore). […]

[8] = system: Stat3 signaling in mouse primary hepatocytes; experiment: Stat3 signaling in mouse primary hepatocytes by immunoblot; format: cell-based; details: 50 ng/ml, 2 h30
Procedure: as §5, §4, §6

Compound | hepcidin mRNA expression increase [1] | hepcidin −ΔΔCt ±SD [1] | hepcidin mRNA increase [3] | hepcidin −ΔΔCt ±SD [3] | SMAD1/5/8 phosphorylation [2] | further results
c1ccc2c(-c3cnn4cc(-c5ccc(N6CCNCC6)cc5)cnc34)ccnc2c1 [LDN-193189, reference compound] |  |  |  |  |  | effect on induction of hepcidin gene expression by activin B ([1]; HepG2, 100 nM added 30 min before activin B (50 ng/ml), 2 h30, 4 or 6 hours after stimulation): completely abolished; effect on Smad1/5/8 phosphorylation induced by activin B ([2]; HepG2, 100 nM added 30 min before activin B (50 ng/ml)): completely abolished; effect on upregulation of Hamp gene expression by activin B ([3]; mouse primary hepatocytes, 1 μM, activin B 50 ng/ml): prevented; effect on Smad1/5/8 phosphorylation induced by activin B ([4]; 1 μM, activin B 50 ng/ml for 2 h30): prevented induction of Smad1/5/8 phosphorylation; activity of BMP type I receptors [5]: inhibit activity of BMP type I receptors; induction of hepcidin expression by IL-6, turpentine, or group A streptococcal peptidoglycan-polysaccharide [6]: blocks induction of hepcidin expression
IL-6: interleukin-6 cytokine, R&D Systems | about 6 fold | 2.63±0.26 | about 1.8 fold | 0.82±0.24 |  | STAT3 phosphorylation [7]: induces STAT3 phosphorylation; Stat3 signaling [8]: strong activation of Stat3 signaling
activin A |  |  |  |  | not shared with activin A | 
activin B | about 13 fold | 3.71±0.46 | about 7 fold | 2.81±0.92 | induces the phosphorylation of the SMAD effectors 1, 5 and 8 | SMAD1/5/8 phosphorylation ([4]; 50 ng/ml, 2 h30): induces

Source: patent US20150125471A1, “METHOD AND PHARMACEUTICAL COMPOSITION FOR USE IN THE TREATMENT AND DIAGNOTIC OF ANEMIA OF INFLAMMATION” (INSERM (INSTITUT NATIONAL DE LA SANTE ET DE LA RECHERCHE …, priority 2012, published 2015)
